Experimental data reported in ChEMBL document CHEMBL3991601, “The target landscape of clinical kinase drugs” (Science, 2017).
The source made the active and inactive calls.

Legend:
[1] = biological target: T1, Interleukin-1 receptor-associated kinase 3 (Homo sapiens, UniProt Q9Y616)
T1 sequence (Q9Y616 whole entry): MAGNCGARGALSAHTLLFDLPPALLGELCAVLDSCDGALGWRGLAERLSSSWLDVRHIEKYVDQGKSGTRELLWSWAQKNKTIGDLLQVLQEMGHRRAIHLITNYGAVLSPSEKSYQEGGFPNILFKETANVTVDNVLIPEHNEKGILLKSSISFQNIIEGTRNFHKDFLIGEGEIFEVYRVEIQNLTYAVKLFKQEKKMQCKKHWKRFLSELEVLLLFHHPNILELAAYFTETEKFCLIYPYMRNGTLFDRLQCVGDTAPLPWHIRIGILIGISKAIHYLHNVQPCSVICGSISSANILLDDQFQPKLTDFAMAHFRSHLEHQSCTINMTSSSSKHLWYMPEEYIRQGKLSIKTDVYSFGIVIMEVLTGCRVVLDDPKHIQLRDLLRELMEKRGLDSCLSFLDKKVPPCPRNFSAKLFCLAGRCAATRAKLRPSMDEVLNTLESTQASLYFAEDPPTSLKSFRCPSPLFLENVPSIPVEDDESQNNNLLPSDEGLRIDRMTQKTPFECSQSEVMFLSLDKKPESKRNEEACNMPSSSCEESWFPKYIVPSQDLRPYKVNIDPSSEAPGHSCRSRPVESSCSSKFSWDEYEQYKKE

[2] = biological target: T2, Receptor-type tyrosine-protein kinase FLT3 (Homo sapiens, UniProt P36888)
T2 sequence (P36888 whole entry): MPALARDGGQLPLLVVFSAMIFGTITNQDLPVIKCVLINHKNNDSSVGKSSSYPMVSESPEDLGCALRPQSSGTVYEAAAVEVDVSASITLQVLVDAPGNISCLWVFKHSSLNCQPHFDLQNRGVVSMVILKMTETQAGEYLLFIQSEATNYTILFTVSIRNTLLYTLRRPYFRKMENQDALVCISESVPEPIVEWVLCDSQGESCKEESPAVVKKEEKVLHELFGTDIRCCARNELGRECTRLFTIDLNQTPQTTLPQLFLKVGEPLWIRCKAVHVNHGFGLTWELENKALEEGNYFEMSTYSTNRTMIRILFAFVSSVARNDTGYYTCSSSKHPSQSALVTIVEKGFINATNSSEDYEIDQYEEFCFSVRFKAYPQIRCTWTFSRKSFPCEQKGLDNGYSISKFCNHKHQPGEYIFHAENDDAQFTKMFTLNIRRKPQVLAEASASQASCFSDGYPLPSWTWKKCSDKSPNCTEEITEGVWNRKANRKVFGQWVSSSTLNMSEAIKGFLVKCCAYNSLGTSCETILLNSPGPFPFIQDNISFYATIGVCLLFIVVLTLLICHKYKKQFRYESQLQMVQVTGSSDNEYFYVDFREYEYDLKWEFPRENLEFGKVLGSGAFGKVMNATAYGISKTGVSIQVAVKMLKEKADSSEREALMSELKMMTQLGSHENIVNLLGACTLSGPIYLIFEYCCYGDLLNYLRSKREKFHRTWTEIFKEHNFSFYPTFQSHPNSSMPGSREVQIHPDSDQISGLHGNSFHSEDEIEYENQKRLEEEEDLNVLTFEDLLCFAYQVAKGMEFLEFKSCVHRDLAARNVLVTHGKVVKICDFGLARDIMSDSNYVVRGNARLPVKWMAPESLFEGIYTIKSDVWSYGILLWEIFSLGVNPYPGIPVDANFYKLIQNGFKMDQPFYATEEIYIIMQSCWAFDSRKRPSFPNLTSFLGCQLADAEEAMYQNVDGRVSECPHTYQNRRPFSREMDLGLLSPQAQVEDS

[3] = biological target: Insulin-like growth factor 1 receptor (Homo sapiens, UniProt P08069)
Sequence of Insulin-like growth factor 1 receptor (P08069 31-736 limits assumed): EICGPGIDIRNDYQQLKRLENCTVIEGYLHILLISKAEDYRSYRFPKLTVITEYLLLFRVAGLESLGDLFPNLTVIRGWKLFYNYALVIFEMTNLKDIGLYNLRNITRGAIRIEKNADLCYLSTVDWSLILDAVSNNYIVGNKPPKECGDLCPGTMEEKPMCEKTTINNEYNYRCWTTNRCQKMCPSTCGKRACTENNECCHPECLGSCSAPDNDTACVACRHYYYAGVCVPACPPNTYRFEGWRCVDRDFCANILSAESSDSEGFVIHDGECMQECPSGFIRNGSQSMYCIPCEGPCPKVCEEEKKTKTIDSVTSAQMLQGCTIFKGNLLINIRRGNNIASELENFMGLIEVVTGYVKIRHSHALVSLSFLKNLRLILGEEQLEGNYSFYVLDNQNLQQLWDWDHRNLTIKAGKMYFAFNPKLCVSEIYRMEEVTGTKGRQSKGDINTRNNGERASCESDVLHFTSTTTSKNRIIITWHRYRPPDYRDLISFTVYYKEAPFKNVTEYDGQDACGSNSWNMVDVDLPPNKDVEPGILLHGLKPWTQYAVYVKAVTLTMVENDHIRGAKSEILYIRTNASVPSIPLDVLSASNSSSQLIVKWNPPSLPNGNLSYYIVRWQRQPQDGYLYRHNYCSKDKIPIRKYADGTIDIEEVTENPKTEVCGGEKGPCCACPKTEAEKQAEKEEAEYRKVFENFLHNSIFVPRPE
Sequence of Insulin-like growth factor 1 receptor (P08069 741-1367 limits assumed): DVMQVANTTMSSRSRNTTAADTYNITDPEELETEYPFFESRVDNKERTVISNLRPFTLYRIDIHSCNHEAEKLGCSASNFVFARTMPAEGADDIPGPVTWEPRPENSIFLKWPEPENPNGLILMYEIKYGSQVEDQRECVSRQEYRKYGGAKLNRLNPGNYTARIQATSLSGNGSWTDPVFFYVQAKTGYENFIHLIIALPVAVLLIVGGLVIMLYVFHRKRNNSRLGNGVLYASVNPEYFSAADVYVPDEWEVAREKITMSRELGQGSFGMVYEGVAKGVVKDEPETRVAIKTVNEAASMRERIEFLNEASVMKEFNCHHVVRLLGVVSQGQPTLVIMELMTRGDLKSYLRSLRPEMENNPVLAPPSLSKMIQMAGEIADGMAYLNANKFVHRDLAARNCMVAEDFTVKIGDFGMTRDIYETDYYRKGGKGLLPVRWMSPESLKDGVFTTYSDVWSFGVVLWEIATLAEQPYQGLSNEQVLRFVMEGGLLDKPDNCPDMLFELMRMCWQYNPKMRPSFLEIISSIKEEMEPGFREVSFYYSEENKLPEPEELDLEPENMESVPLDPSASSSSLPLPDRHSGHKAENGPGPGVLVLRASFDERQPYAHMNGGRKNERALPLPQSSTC

[4] = biological target: Cyclin-dependent kinase 2 (Homo sapiens, UniProt P24941)
[5] = biological target: T3, Delta(24)-sterol reductase (Homo sapiens, UniProt Q15392)
T3 sequence (Q15392 whole entry): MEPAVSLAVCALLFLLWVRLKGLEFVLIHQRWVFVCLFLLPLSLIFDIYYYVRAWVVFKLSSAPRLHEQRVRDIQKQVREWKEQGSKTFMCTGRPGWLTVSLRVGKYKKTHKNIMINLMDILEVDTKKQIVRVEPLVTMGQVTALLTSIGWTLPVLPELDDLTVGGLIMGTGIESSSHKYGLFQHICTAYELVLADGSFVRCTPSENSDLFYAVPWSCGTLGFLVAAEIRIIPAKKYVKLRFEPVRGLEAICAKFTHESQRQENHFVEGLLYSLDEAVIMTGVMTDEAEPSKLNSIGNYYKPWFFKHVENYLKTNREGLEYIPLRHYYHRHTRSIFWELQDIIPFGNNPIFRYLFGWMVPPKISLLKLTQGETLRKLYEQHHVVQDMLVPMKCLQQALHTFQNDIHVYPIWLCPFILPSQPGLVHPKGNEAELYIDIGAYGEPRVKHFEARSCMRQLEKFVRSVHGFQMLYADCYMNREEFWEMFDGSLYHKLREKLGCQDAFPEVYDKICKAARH

[6] = biological target: T4, Bifunctional phosphoribosylaminoimidazole carboxylase/phosphoribosylaminoimidazole succinocarboxamide synthetase (Homo sapiens, UniProt P22234)
T4 sequence (P22234 whole entry): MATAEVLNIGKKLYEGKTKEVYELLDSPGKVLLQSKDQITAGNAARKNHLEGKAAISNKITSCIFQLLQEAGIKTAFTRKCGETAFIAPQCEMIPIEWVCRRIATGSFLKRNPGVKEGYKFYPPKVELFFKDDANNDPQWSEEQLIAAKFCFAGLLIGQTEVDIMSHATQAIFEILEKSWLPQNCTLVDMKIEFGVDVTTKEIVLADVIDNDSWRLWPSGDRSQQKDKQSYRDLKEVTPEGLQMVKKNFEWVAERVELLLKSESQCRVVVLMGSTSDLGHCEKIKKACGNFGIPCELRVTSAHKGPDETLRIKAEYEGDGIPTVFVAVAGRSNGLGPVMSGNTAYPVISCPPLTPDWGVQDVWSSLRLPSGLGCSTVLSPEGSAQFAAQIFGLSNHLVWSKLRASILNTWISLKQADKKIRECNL
Further: in the data inactive means no Kd found up to 30 µM.

Structure (SMILES) | Kd [1] | Kd [2] | Kd [3] | Kd [4] | Kd [5] | Kd [6]
COCC(=O)NC/C=C/c1ccc2ncnc(Nc3ccc(Oc4ccc(C)nc4)c(C)c3)c2c1 [CP-724714] | > 30 µM (inactive) | > 30 µM (inactive) | > 30 µM (inactive) | > 30 µM (inactive) | > 30 µM (inactive) | > 30 µM (inactive)
O=C(Nc1nc2cccc(-c3ccc(CN4CCS(=O)(=O)CC4)cc3)n2n1)C1CC1 [FILGOTINIB] | > 30 µM (inactive) | > 30 µM (inactive) | > 30 µM (inactive) | > 30 µM (inactive) | > 30 µM (inactive) | > 30 µM (inactive)
Cc1cccc(-c2nn3c(c2-c2ccnc4ccc(C(N)=O)cc24)CCC3)n1 [GALUNISERTIB] | > 30 µM (inactive) | > 30 µM (inactive) | > 30 µM (inactive) | > 30 µM (inactive) | > 30 µM (inactive) | > 30 µM (inactive)
CNC(=O)c1nn(C)c2c1C(C)(C)Cc1cnc(Nc3ccc(N4CCN(C)CC4)cc3)nc1-2 [MILCICLIB] | 0.291 µM (active) | 0.054 µM (active) | > 30 µM (inactive) | 0.739 µM (active) | > 30 µM (inactive) | > 30 µM (inactive)
FC(F)(F)c1ccc(/C=C/c2nc(COc3ccc(CCCCn4ccnn4)cc3)co2)cc1 [MUBRITINIB] | > 30 µM (inactive) | > 30 µM (inactive) | > 30 µM (inactive) | > 30 µM (inactive) | > 30 µM (inactive) | > 30 µM (inactive)
COc1ncc(-c2ccc3nccc(-c4ccnnc4)c3c2)cc1NS(=O)(=O)c1ccc(F)cc1F [OMIPALISIB] | 3.03 µM (active) | > 30 µM (inactive) | > 30 µM (inactive) | > 30 µM (inactive) | > 30 µM (inactive) | > 30 µM (inactive)
CCOc1cc2ncc(C#N)c(Nc3ccc(F)c(Cl)c3)c2cc1NC(=O)/C=C/CN(C)C [PELITINIB] | > 30 µM (inactive) | > 30 µM (inactive) | > 30 µM (inactive) | > 30 µM (inactive) | > 30 µM (inactive) | > 30 µM (inactive)
CCCCCCCCCCCCCCCCCCOP(=O)([O-])OC1CC[N+](C)(C)CC1 [PERIFOSINE] | > 30 µM (inactive) | > 30 µM (inactive) | > 30 µM (inactive) | > 30 µM (inactive) | > 30 µM (inactive) | > 30 µM (inactive)
Cc1cnc(NC(=O)Nc2cc(Br)c(C)cc2OC[C@@H]2CNCCO2)cn1 [RABUSERTIB] | > 30 µM (inactive) | > 30 µM (inactive) | > 30 µM (inactive) | > 30 µM (inactive) | > 30 µM (inactive) | > 30 µM (inactive)
CO[C@H]1C[C@@H]2CC[C@@H](C)[C@@](O)(O2)C(=O)C(=O)N2CCCC[C@H]2C(=O)O[C@H]([C@H](C)C[C@@H]2CC[C@@H](OP(C)(C)=O)[C@H](OC)C2)CC(=O)[C@H](C)/C=C(\C)[C@@H](O)[C@@H](OC)C(=O)[C@H](C)C[C@H](C)/C=C/C=C/C=C/1C [RIDAFOROLIMUS] | > 30 µM (inactive) | > 30 µM (inactive) | > 30 µM (inactive) | > 30 µM (inactive) | > 30 µM (inactive) | > 30 µM (inactive)
N#CC1(c2ccc(NC(=O)c3cccnc3NCc3ccncc3)cc2)CCCC1 [RIVOCERANIB] | > 30 µM (inactive) | > 30 µM (inactive) | > 30 µM (inactive) | > 30 µM (inactive) | > 30 µM (inactive) | > 30 µM (inactive)
O=c1[nH]ccc2cc(OC3CCNCC3)ccc12 [SAR-407899 FREE BASE] | > 30 µM (inactive) | > 30 µM (inactive) | > 30 µM (inactive) | > 30 µM (inactive) | > 30 µM (inactive) | > 30 µM (inactive)
CN1CCN(CCOc2cc(OC3CCOCC3)c3c(Nc4c(Cl)ccc5c4OCO5)ncnc3c2)CC1 [SARACATINIB] | > 30 µM (inactive) | 0.14 µM | > 30 µM (inactive) | > 30 µM (inactive) | > 30 µM (inactive) | > 30 µM (inactive)
CO[C@H]1C[C@@H]2CC[C@@H](C)[C@@](O)(O2)C(=O)C(=O)N2CCCC[C@H]2C(=O)O[C@H]([C@H](C)C[C@@H]2CC[C@@H](O)[C@H](OC)C2)CC(=O)[C@H](C)/C=C(\C)[C@@H](O)[C@@H](OC)C(=O)[C@H](C)C[C@H](C)/C=C/C=C/C=C/1C [SIROLIMUS] | > 30 µM (inactive) | > 30 µM (inactive) | > 30 µM (inactive) | > 30 µM (inactive) | > 30 µM (inactive) | > 30 µM (inactive)

Further lines, results first:

Kd [1] | Kd [2] | Kd [3] | Kd [4] | Kd [5] | Kd [6] | Structure (SMILES)
> 30 µM (inactive) | > 30 µM (inactive) | > 30 µM (inactive) | > 30 µM (inactive) | > 30 µM (inactive) | > 30 µM (inactive) | C#Cc1cccc(Nc2ncnc3cc(OC)c(OCCCCCCC(=O)NO)cc23)c1 [CUDC-101]
> 30 µM (inactive) | > 30 µM (inactive) | > 30 µM (inactive) | > 30 µM (inactive) | > 30 µM (inactive) | > 30 µM (inactive) | COc1ccc(S(=O)(=O)N(C(C)=O)c2ccccc2/C=C/c2cc[n+]([O-])cc2)cc1 [HMN-214]
> 30 µM (inactive) | > 30 µM (inactive) | > 30 µM (inactive) | > 30 µM (inactive) | > 30 µM (inactive) | > 30 µM (inactive) | NC1(c2ccc(-c3nc4ccn5c(=O)[nH]nc5c4cc3-c3ccccc3)cc2)CCC1 [MK-2206]
0.502 µM (active) | > 30 µM (inactive) | > 30 µM (inactive) | > 30 µM (inactive) | > 30 µM (inactive) | > 30 µM (inactive) | CN(C[C@@H]1COCCO1)S(=O)(=O)Nc1ccc2ccc3ncc(-c4cnn(C)c4)cc3c(=O)c2c1 [MK-2461]
> 30 µM (inactive) | > 30 µM (inactive) | > 30 µM (inactive) | > 30 µM (inactive) | > 30 µM (inactive) | > 30 µM (inactive) | Cn1cc(-c2cnc3ccc4ccc(CS(=O)(=O)NCc5ccccn5)cc4c(=O)c3c2)cn1 [MK-8033]
> 30 µM (inactive) | > 30 µM (inactive) | > 30 µM (inactive) | > 30 µM (inactive) | > 30 µM (inactive) | > 30 µM (inactive) | Cn1cc(-c2cnn3c(N)c(Br)c([C@@H]4CCCNC4)nc23)cn1 [SCH-900776]
